Measurements from PubChem BioAssay (NCI).
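A five-concentration, 48-hour dose response in 96-well plates underlies each endpoint, interpolated linearly between surrounding concentrations. The concentration for full growth arrest is given as TGI.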

Columns and labels:
Assay in all cases: NCI anticancer screen, dose series, 48 h
786-0 renal = tested on: 786-0 renal
A549 NSCLC = tested on: A549 NSCLC
ACHN renal = tested on: ACHN renal
CAKI-1 renal = tested on: CAKI-1 renal
CCRF-CEM leukemia = tested on: CCRF-CEM leukemia
COLO 205 colon = tested on: COLO 205 colon
DLD-1 colon = tested on: DLD-1 colon
EKVX NSCLC = tested on: EKVX NSCLC
HCC-2998 colon = tested on: HCC-2998 colon
HCT-116 colon = tested on: HCT-116 colon
HCT-15 colon = tested on: HCT-15 colon
HL-60(TB) leukemia = tested on: HL-60(TB) leukemia
HOP-18 NSCLC = tested on: HOP-18 NSCLC
HOP-62 NSCLC = tested on: HOP-62 NSCLC
HT29 colon = tested on: HT29 colon
IGROV1 ovarian = tested on: IGROV1 ovarian
K-562 leukemia = tested on: K-562 leukemia
KM12 colon = tested on: KM12 colon
KM20L2 colon = tested on: KM20L2 colon
LOX IMVI melanoma = tested on: LOX IMVI melanoma
LXFL 529 NSCLC = tested on: LXFL 529 NSCLC
M14 melanoma = tested on: M14 melanoma
M19-MEL melanoma = tested on: M19-MEL melanoma
MALME-3M melanoma = tested on: MALME-3M melanoma
MOLT-4 leukemia = tested on: MOLT-4 leukemia
NCI-H226 lung = tested on: NCI-H226 lung
NCI-H23 lung = tested on: NCI-H23 lung
NCI-H460 lung = tested on: NCI-H460 lung
NCI-H522 lung = tested on: NCI-H522 lung
OVCAR-3 ovarian = tested on: OVCAR-3 ovarian
OVCAR-4 ovarian = tested on: OVCAR-4 ovarian
OVCAR-5 ovarian = tested on: OVCAR-5 ovarian
OVCAR-8 ovarian = tested on: OVCAR-8 ovarian
RPMI-8226 leukemia = tested on: RPMI-8226 leukemia
RXF 393 renal = tested on: RXF 393 renal
SF-268 CNS = tested on: SF-268 CNS
SF-295 CNS = tested on: SF-295 CNS
SF-539 CNS = tested on: SF-539 CNS
SK-MEL-2 melanoma = tested on: SK-MEL-2 melanoma
SK-MEL-28 melanoma = tested on: SK-MEL-28 melanoma
SK-MEL-5 melanoma = tested on: SK-MEL-5 melanoma
SN12C renal = tested on: SN12C renal
SNB-19 CNS = tested on: SNB-19 CNS
SNB-75 CNS = tested on: SNB-75 CNS
SNB-78 CNS = tested on: SNB-78 CNS
SR leukemia = tested on: SR leukemia
SW-620 colon = tested on: SW-620 colon
U251 CNS = tested on: U251 CNS
UACC-257 melanoma = tested on: UACC-257 melanoma
UACC-62 melanoma = tested on: UACC-62 melanoma
UO-31 renal = tested on: UO-31 renal
XF 498 CNS = tested on: XF 498 CNS

COc1ccc(-c2onc(-c3ccc([N+](=O)[O-])cc3)c2C2=NCCCN2)cc1
TGI (786-0 renal): > 100 µM
TGI (A549 NSCLC): > 100 µM
TGI (ACHN renal): > 100 µM
TGI (CAKI-1 renal): > 100 µM
TGI (CCRF-CEM leukemia): > 100 µM
TGI (COLO 205 colon): > 100 µM
TGI (DLD-1 colon): > 100 µM
TGI (EKVX NSCLC): > 100 µM
TGI (HCC-2998 colon): > 100 µM
TGI (HCT-116 colon): > 100 µM
TGI (HCT-15 colon): > 100 µM
TGI (HL-60(TB) leukemia): > 100 µM
TGI (HOP-18 NSCLC): > 100 µM
TGI (HOP-62 NSCLC): > 100 µM
TGI (HT29 colon): > 100 µM
TGI (IGROV1 ovarian): > 100 µM
TGI (K-562 leukemia): > 100 µM
TGI (KM12 colon): > 100 µM
TGI (KM20L2 colon): > 100 µM
TGI (LOX IMVI melanoma): > 100 µM
TGI (LXFL 529 NSCLC): > 100 µM
TGI (M14 melanoma): > 100 µM
TGI (M19-MEL melanoma): > 100 µM
TGI (MALME-3M melanoma): > 100 µM
TGI (MOLT-4 leukemia): > 100 µM
TGI (NCI-H226 lung): > 100 µM
TGI (NCI-H23 lung): > 100 µM
TGI (NCI-H460 lung): > 100 µM
TGI (NCI-H522 lung): > 100 µM
TGI (OVCAR-3 ovarian): 85.5 µM
TGI (OVCAR-4 ovarian): > 100 µM
TGI (OVCAR-5 ovarian): > 100 µM
TGI (OVCAR-8 ovarian): > 100 µM
TGI (RPMI-8226 leukemia): > 100 µM
TGI (RXF 393 renal): > 100 µM
TGI (SF-268 CNS): > 100 µM
TGI (SF-295 CNS): > 100 µM
TGI (SF-539 CNS): > 100 µM
TGI (SK-MEL-2 melanoma): > 100 µM
TGI (SK-MEL-28 melanoma): > 100 µM
TGI (SK-MEL-5 melanoma): > 100 µM
TGI (SN12C renal): > 100 µM
TGI (SNB-19 CNS): > 100 µM
TGI (SNB-75 CNS): > 100 µM
TGI (SNB-78 CNS): > 100 µM
TGI (SR leukemia): > 100 µM
TGI (SW-620 colon): > 100 µM
TGI (U251 CNS): > 100 µM
TGI (UACC-257 melanoma): > 100 µM
TGI (UACC-62 melanoma): > 100 µM
TGI (UO-31 renal): > 100 µM
TGI (XF 498 CNS): > 100 µM
